Key:
Format in all cases: physicochemical
[1] = Stability, placed openly in stability chamber at 25° C. and 65% RH; settings: open
[2] = Stability, placed openly in stability chamber at 4° C. and 75% RH; settings: open
[3] = Exposure in air at 2-8° C., relative humidity 70-80% (crystal form transformation by absorbing water); settings: RH 70-80%
Text: Moisture (KF) determination method: MC-2000 automatic micro-moisture tester from Min Measure Instrument and Equipment (Xiamen) Co., Ltd. and Karl Fischer reagent from Nanjing Chemical Reagent Co., Ltd.

[4] = 0 day, listed as amorphous solid, disodium salt
[5] = 1 day, listed as amorphous solid, disodium salt

Q: What does the source list for NC(=O)C1=CN([C@@H]2O[C@H](COP(=O)([O-])[O-])[C@@H](O)[C@H]2O)C=CC1.[Na+].[Na+] [Amorphous Solids, reduced β-nicotinamide mononucleotide disodium salt]?
A: Appearance of solid ([1]; 0 day): (powders); NMNH disodium salt purity (HPLC, % area) ([1]; 0 day, disodium salt): 99.30 % area; NMNH disodium salt purity (HPLC, % area) [1, 4]: 99.30 % area; Appearance of solid ([1]; 1 day, disodium salt): (oil); NMNH disodium salt purity (HPLC, % area) ([1]; 1 day, disodium salt): 99.02 % area; Appearance of solid [1, 5]: the powder absorbed water and turned into an oil; NMNH disodium salt purity (HPLC, % area) [1, 5]: 99.02 % area; NMNH disodium salt purity (HPLC, % area) ([2]; 0 day, disodium salt): 99.30 % area; NMNH disodium salt purity (HPLC, % area) [2, 4]: 99.30 % area; NMNH disodium salt purity (HPLC, % area) ([2]; 5 day, disodium salt): 99.26 % area; NMNH disodium salt purity (HPLC, % area) ([2]; 5 day, listed as amorphous solid, disodium salt): 99.26 % area; Appearance of solid ([2]; 5 days): the powder solid absorbed water and became viscous to form a mass; NMNH disodium salt purity (HPLC, % area) ([2]; 18 day, disodium salt): 99.17 % area; NMNH disodium salt purity (HPLC, % area) ([2]; 18 day, listed as amorphous solid, disodium salt): 99.17 % area; Appearance of solid ([2]; 18 days, disodium salt): the color became darker

Q: Which “NMNH disodium salt purity (HPLC, % area)” value ([1]; 0 day, disodium salt) does the source give for NC(=O)C1=CN([C@@H]2O[C@H](COP(=O)([O-])[O-])[C@@H](O)[C@H]2O)C=CC1.[Na+].[Na+] [Crystal form A, reduced β-nicotinamide mononucleotide disodium salt] here?
A: The value was 99.33 % area.

Q: What about the “NMNH disodium salt purity (HPLC, % area)” value ([1]; 0 day, listed as crystal form A, disodium salt) of the same compound?
A: The value was 99.33 % area.

Q: And the “NMNH disodium salt purity (HPLC, % area)” value ([1]; 1 day, disodium salt)?
A: Its value is 99.27 % area.

Q: And the “NMNH disodium salt purity (HPLC, % area)” value ([1]; 5 day)?
A: Its value is 99.01 % area.

Q: What about the Appearance of solid ([1]; 5 days) of the same compound?
A: Its Appearance of solid is “still a crystal powder”.

Q: What about the “NMNH disodium salt purity (HPLC, % area)” value ([2]; 0 day, disodium salt) of the same compound?
A: The value was 99.33 % area.

Q: And the “NMNH disodium salt purity (HPLC, % area)” value ([2]; 5 day, disodium salt)?
A: The value was 99.35 % area.

Q: And the “NMNH disodium salt purity (HPLC, % area)” value ([2]; 18 day, disodium salt)?
A: Its value is 99.33 % area.

Q: What about the “NMNH disodium salt purity (HPLC, % area)” value ([2]; 18 day, listed as crystal form A, disodium salt) of the same compound?
A: Its value is 99.33 % area.

Q: What about the Appearance of solid ([2]; 18 days, disodium salt) of the same compound?
A: The Appearance of solid was “still a crystal powder”.

Q: For NC(=O)C1=CN([C@@H]2O[C@H](COP(=O)([O-])[O-])[C@@H](O)[C@H]2O)C=CC1.[Na+].[Na+] [crystal form B, reduced β-nicotinamide mononucleotide disodium salt], which “Moisture (KF) after exposure” value ([3]; after 30 days) is on record?
A: Its value is 29%.

Q: What about the “Resulting solid crystal form” value ([3]; after 30 days) of the same compound?
A: Its value is “crystal form A”.

Q: For NC(=O)C1=CN([C@@H]2O[C@H](COP(=O)([O-])[O-])[C@@H](O)[C@H]2O)C=CC1.[Na+].[Na+] [crystal form C, reduced β-nicotinamide mononucleotide disodium salt], which “Moisture (KF) after exposure” value ([3]; after 24 hours) is on record?
A: Its value is 24%.

Q: What about the “Resulting solid crystal form” value ([3]; after 24 hours) of the same compound?
A: The value was “crystal form A”.

From patent publication US12570683B2, “Polymorphic form of reduced beta-nicotinamide mononucleotide disodium salt, and preparation method therefor and use thereof” (EFFEPHARM (SHANGHAI) CO., LTD., priority 2022, dated 2026)
